Source: patent publication US20070020747A1, “Composition for eliminating ethidium bromide and use thereof” (priority 2005, published 2007)

Assays:
[1] = UV examination of EtBr elimination by oxidants in glass bottles (Example 1); conditions: for EtBr cleaning effect: oxidant 500 mM, not illuminated with UV; for EtBr cleaning effect / EtBr-eliminating effect (fluorescence): 60 min; for elimination of EtBr in solution (fluorescence): oxidant 20 or 500 mM, illuminated with UV for 60 minutes, groups 1-3
Description: 5M lithium nitrate (LiNO3), 5M sodium nitrite (NaNO2), and 5 µg/ml EtBr solutions were prepared.
7 glass bottles (about 7 ml of capacity) were prepared with solutions as described in Table 1. The bottle 1 was added 4 μl LiNO3 and 996 μl EtBr, wherein the final concentration of LiNO3 was 20 mM. The bottle 2 was added 100 μl LiNO3 and 900 μl EtBr, wherein the final concentration of LiNO3 was 500 mM. The bottle 3 was added 4 μl NaNO2 and 996 μl EtBr, wherein the final concentration of NaNO2 was 20 mM. The bottle 4 was added 100 μl NaNO2 and 900 μl EtBr, wherein the final concentration of NaNO2 was 500 mM. The bottle 5 was added 1 ml EtBr only. The bottle 6 was added 100 μl LiNO3 and 900 μl EtBr. The bottle 7 was added 100 μl NaNO2 and 900 μl EtBr.
The bottles 1-5 were illuminated with ultraviolet, which was 8 W and the wavelength was 180-280 nm. The samples were collected in the time point 0 and 60 minutes. The bottles 6 and 7 were not illuminated with ultraviolet and the samples were collected in the time point 60 minutes.
Except the wavelength of UV was changed to 280˜320 nm, all conditions were identical to group 1.
Except the wavelength of UV was changed to 320˜380 nm, all conditions were identical to group 1.
Each sample was collected 25 μl from the experimental bottle in the selected time point. There were 12 samples for each group, total 36 samples. These samples were dropped on the center of a filter paper (diameter 2.5 cm) and illuminated with UV to observe the elimination of EtBr.

[2] = UV examination of EtBr elimination by oxidants in beakers under a four-tube UV lid (Example 2); conditions: oxidant 50 mM
Description: The appearance of the light source was a rectangular lid and the size was 35 cm×21 cm×15 cm. Four parallel 8 W UV tubes were implanted on the top of the lid.
5 beakers were prepared. Beaker 1 and 2 were added 100 μl LiNO3 and 9.9 ml EtBr, so that the final concentration of LiNO3 was 50 mM. Beaker 3 and 4 were added 100 μl NaNO2 and 9.9 ml EtBr, so that the final concentration of NaNO2 was 50 mM. Beaker 5 was added 10 ml EtBr only. The beakers 1, 3 and 5 were illuminated with UV, and the samples were collected in the time points 0, 15, 30, 60 and 120 minutes. The beakers 2 and 4 were not illuminated with UV, and the samples were collected in the time point 120 minutes.
Each sample was collected 25 μl from the experimental beaker in the selected time point. There were 17 samples totally. These samples were dropped on the center of a filter paper (diameter 2.5 cm) and illuminated with UV to observe the elimination of EtBr.

[3] = oxidant plus UV with wavelength 180~280 nm, 8 W
[4] = oxidant plus UV with wavelength 320~380 nm
[5] = oxidant plus UV, second wavelength printed as 180~280 nm (group 2: 280~320 nm)
[6] = after 60 minutes of UV illumination
[7] = after illuminating with UV for 15 minutes

| SMILES | EtBr cleaning effect [1] | elimination of EtBr in solution (fluorescence) [1] | EtBr-eliminating effect (fluorescence) [1, 3] | EtBr-eliminating effect (fluorescence) [1, 4] | EtBr-eliminating effect (fluorescence) [1, 5] | destruction of EtBr (fluorescence) [2, 6] | destruction of EtBr (fluorescence) [2, 7] | destruction of EtBr (fluorescence) ([2]; no UV illumination, 120 min) |
| --- | --- | --- | --- | --- | --- | --- | --- | --- |
| O=[N+]([O-])[O-].[Li+] [lithium nitrate] | no or insignificant EtBr cleaning effect | completely destroyed | strongest effect | less effective | modest effect | almost all of EtBr in the samples were destroyed | most EtBr | not destroyed (or insignificantly destroyed) |
| O=NO [sodium nitrite] | no or insignificant EtBr cleaning effect | completely destroyed | strongest effect | less effective | modest effect | almost all of EtBr in the samples were destroyed | most EtBr | not destroyed (or insignificantly destroyed) |
